{"source": "patent US20200283728A1", "about": "“MODIFIED T CELLS AND USES THEREOF” (MUSC FOUNDATION FOR RESEARCH DEVELOPMENT, priority 2017, published 2020)", "format_in_all_cases": "cell-based, mouse", "key": {"[1]": {"test_system": "Wnt/β-catenin pathway", "assay": "Wnt/β-catenin pathway expression in Th17 cells (Western blot, real-time PCR)", "experimental": "Total RNA isolation was performed using the Trizol method (Life Technologies) according to the manufacturer's procedure. RNA quantity and purity was assessed using a NanoDrop ND-1000. 1 μg total RNA was transcribed with Transcriptor First Strand cDNA Synthesis Kit (Roche). qReal-time PCR was performed on LightCycler480 machine following manufacturer's protocols (Roche). Probes utilized include Rorc, IL-17, Cmaf IL-21, Cpt-1a, Tcf-7, Lef-1, Cnnb1. All probes are commercially available (ABI). Relative gene expression was determined by the comparative CT method (45). β-actin was used as housekeeping gene.\nNuclear and cytoplasmic protein were isolated by lysis using Nuclear and Cytoplasmic Extraction Reagent with Protease&Phosphatase Inhibitor Cocktail (ThermoScientific). Protein concentration was quantified using […] (ThermoScientific) according to the manufacturer's instructions. 10 to 30 μg of total protein was separated on a Mini-PROTEAN TGX, Any kD™ gel, followed by transfer onto PVDF membrane (Bio-Rad). The membranes were blocked with 5% BSA in TBS buffer containing 0.5% Tween20. The membranes were then incubated overnight at 4° C. with the primary antibodies to β-catenin (BD Bioscience), p110δ, Tcf7 (Abcam), RORγt (Affymetrix) phospho-Akt, total-Akt, STAT-3, Histone-3, Lef1 (abcam), and GAPDH (Cell Signaling) at the concentration recommended by manufactures. Subsequently, membranes were washed and incubated for 1 h at room temperature with (HRP)-conjugated goat antibodies to mouse or rabbit IgG (Cell Signaling). For detection of protein, chemiluminescence method was performed using Western ECL Blotting Substrate (Bio-Rad) followed by X-ray film-based imaging method (ThermoScientific). Quantification of optical density performed using Fiji analysis software (NIH)."}, "[2]": {"test_system": "ICOS activated Th17 cells", "assay": "Cytokine production of inhibitor-primed Th17 cells after secondary re-stimulation in vitro (ELISA)", "conditions": "vs untreated or CAL-101-treated Th17 cells", "text": "FIG. 11: Re-stimulation of ICOS activated Th17 cells in vitro restores their cytokine production after initial inhibition of PI3K/p110δ and Wnt/β-catenin signaling pathways. ELISA analysis of cytokine production 72 hrs after secondary re-stimulation in vitro using splenocytes pulsed with trp-1 peptide (5:1 ratio), PMA/Ionomycin or B16F10 cancer cells of ICOS stimulated Th17 cells expanded with inhibitors as indicated. Data represent mean±SEM of at least three independent experiments.\nCytokine levels were measured using the mouse IL-17A, INF-γ, IL-2, IL-9, IL-10, IL-21, IL-22, CCL-20, GM-CSF ELISA kits (R&D) following the manufacturer's protocol."}, "[3]": {"test_system": "ICOS-stimulated Th17 cells", "assay": "Growth and survival of ICOS-stimulated Th17 cells expanded with inhibitors", "conditions": "in vitro expansion, day 7", "experimental": "Expansion of Th17 cells with Wnt/β-catenin and PI3K inhibitors in vitro: […] splenocytes were activated with irradiated (10Gy) C57BL/6 splenocytes pulsed with […] peptide (1 μM) added at a 5:1 ratio in 24-well plates (1 mL media containing 1.5×10^6 cells/well). […] splenocytes were co-stimulated with soluble ICOS agonist (Clone 398.4A, BioLegend) and polarized toward Th17 phenotype as describe above. For in vitro expansion from day 0 of culture 10 μM Ly294002 (Cayman Chemical) or 10 μM CAL-101 (Selleckchem) and/or 60 μM indomethacin (Sigma-Aldrich) was added. Also dimethylosulfoxide 0.01% (Sigma-Aldrich) was added as a control. Th17 cultures were also supplemented with hrIL-2 (100 IU/mL) and rmIL-23 ([…]; R&D). Medium, including cytokines and inhibitors was refreshed every 2-3 days."}}}
{"smiles": "COc1ccc2c(c1)c(CC(=O)O)c(C)n2C(=O)c1ccc(Cl)cc1", "note": "[Indo, indomethacin]", "values": [{"measurement": "nuclear β-catenin after re-stimulation", "setting": "[1]; antigen specific re-stimulation in vitro", "value": "re-expressed β-catenin to the level observed in un-treated ICOS stimulated Th17 cells"}, {"measurement": "nuclear β-catenin expression", "setting": "[1]; day 8, before re-stimulation / transfer", "value": "abolish β-catenin translocation to the nucleus"}, {"measurement": "IL-2 secretion after peptide re-stimulation", "setting": "[2]", "value": "significantly more"}, {"measurement": "Th17 cell growth or survival", "setting": "[3]", "value": "did not impair"}]}
